{"source": "patent US20260256794A1", "about": "“Oral Dynamine Formulations and Methods Therefor” (Ortho-Nutra, LLC, priority 2023, published 2026)", "type_in_all_cases": "in vivo, human", "key": {"subjects [1]": {"system": "subjects", "experiment": "VAS-Drive", "parameters": "VAS-Drive rating, Mean / VAS-Drive changes from baseline, Mean Difference ± SE: scale not given here; VAS-Drive area under the curve, Mean Difference ± SE / VAS-Drive area under the curve, Mean: unit not given here", "method": "(§1) The inventors have discovered various compositions and methods of improving various indices of neurological and neuroenergetic functions by administering 100 mg (once daily) dosages of DYNAMINE™ (dosage between 1.0 and 1.4 mg/kg) as described in the following:\n(§2) All neuroenergetic tests as listed below were performed and data were collected after 0 and 4 days of assigned supplements (with acute effects also measured at day 4 over 180 minutes):\n(§3) All VAS Measurement (Energy, Sustained Energy, Mental Stamina, Ability to Focus, Ability to Concentrate, Motivation to Accomplish Difficult Tasks, Drive, Vigor, Level of Positive Outlook, Mood, Feelings of Well-Being, Tolerate Stress); Day 0: Two tests were completed. The average of both scores was computed and this value was used in all statistical analysis. Day 4 (0 minutes after ingesting dose #4): Two tests were completed. The average of both scores was computed and this value was used in all statistical analysis. Day 4 (60, 120, and 180 minutes after ingesting dose #4): One test was completed at each time point.\n(§4) Neuroenergic parameters are inherently subjective, nevertheless significant in human behavior and well-being. To allow for a standardization among different subjects, the following experiments were performed using a visual analog scale using anchor statements (lowest possible/highest possible) in which subjects were asked to rate their subjective experience with respect to the specific neuroenergic parameters tested.\nVAS-Drive: In this subjective test, subjects were asked to rate their personal level of energy on a VAS scale using the prompt of “My drive right now is . . . ” (with rating lowest possible to highest possible)”. Results were collected as noted above and Table 22 provides exemplary results for Day 0 versus Day 4 ratings, whereas Table 23 provides exemplary acute results measured at Day 4 over a duration of 180 minutes."}, "subjects [2]": {"system": "subjects", "experiment": "VAS-Positivity", "parameters": "VAS-Positivity rating, Mean: scale not given here", "method": "as §1, §2, §3, §4\nVAS-Positivity: In this subjective test, subjects were asked to rate their personal level of energy on a VAS scale using the prompt of “My level of positive outlook right now is . . . ” (with rating lowest possible to highest possible)”. Results were collected as noted above and Table 28 provides exemplary results for Day 0 versus Day 4 ratings, whereas Table 29 provides exemplary acute results measured at Day 4 over a duration of 180 minutes."}, "subjects [3]": {"system": "subjects", "experiment": "VAS-Ability to tolerate stress", "parameters": "VAS-Ability to tolerate stress rating, Mean / VAS-Ability to tolerate stress changes from baseline, Mean Difference ± SE / VAS-Ability to tolerate stress area under the curve, Mean Difference ± SE / VAS-Ability to tolerate stress area under the curve, Mean: scale not given here", "method": "as §1, §2, §3, §4\nVAS-Ability to tolerate stress: In this subjective test, subjects were asked to rate their personal level of energy on a VAS scale using the prompt of “My ability to tolerate stress right now is . . . ” (with rating lowest possible to highest possible)”. Results were collected as noted above and Table 37 provides exemplary results for Day 0 versus Day 4 ratings, whereas Table 38 provides exemplary acute results measured at Day 4 over a duration of 180 minutes."}, "[4]": {"settings": "100 mg once daily, Day 4, 0-180 min"}, "[5]": {"settings": "100 mg once daily, Day 4, 0-180 min, vs Group A (placebo)"}, "[6]": {"settings": "100 mg once daily, Day 4, 0 min after dose #4"}, "[7]": {"settings": "100 mg once daily, Day 4, 60 min-0 min, vs Group A (placebo)"}, "[8]": {"settings": "100 mg once daily, Day 4, 60 min after dose #4"}, "[9]": {"settings": "100 mg once daily, Day 4, 120 min-0 min, vs Group A (placebo)"}, "[10]": {"settings": "100 mg once daily, Day 4, 120 min after dose #4"}, "[11]": {"settings": "100 mg once daily, Day 4, 180 min-0 min, vs Group A (placebo)"}, "[12]": {"settings": "100 mg once daily, Day 4, 180 min after dose #4"}}, "note": "Where “and” joins values, the source holds several entries; their conditions need not be identical. Equal entries are not always repeated."}
{"smiles": "COc1nc2c(c(=O)n1C)n(C)c(=O)n2C", "note": "[methylliberine, 2-methoxy-1,7,9-trimethylpurine-6,8-dione]", "values": [{"measurement": "VAS-Drive area under the curve, Mean", "setting": "subjects [1]; [4]", "result": 1110}, {"measurement": "VAS-Drive area under the curve, Mean Difference ± SE", "setting": "subjects [1]; [5]", "result": "20.4 ± 37.8"}, {"measurement": "VAS-Drive area under the curve, effect size d", "setting": "subjects [1]; [5]", "result": 0.06}, {"measurement": "VAS-Drive rating, Mean", "setting": "subjects [1]; [6]", "result": 5.9}, {"measurement": "VAS-Drive changes from baseline, Mean Difference ± SE", "setting": "subjects [1]; [7]", "result": "−0.06 ± 0.27"}, {"measurement": "VAS-Drive changes from baseline, effect size d", "setting": "subjects [1]; [7]", "result": "−0.07"}, {"measurement": "VAS-Drive rating, Mean", "setting": "subjects [1]; [8]", "result": 6.1}, {"measurement": "VAS-Drive changes from baseline, Mean Difference ± SE", "setting": "subjects [1]; [9]", "result": "−0.16 ± 0.28"}, {"measurement": "VAS-Drive changes from baseline, effect size d", "setting": "subjects [1]; [9]", "result": "−0.15"}, {"measurement": "VAS-Drive rating, Mean", "setting": "subjects [1]; [10]", "result": 6.2}, {"measurement": "VAS-Drive changes from baseline, Mean Difference ± SE", "setting": "subjects [1]; [11]", "result": "0.33 ± 0.35"}, {"measurement": "VAS-Drive changes from baseline, effect size d", "setting": "subjects [1]; [11]", "result": 0.26}, {"measurement": "VAS-Drive rating, Mean", "setting": "subjects [1]; [12]", "result": 6.4}, {"measurement": "VAS-Drive rating, Mean", "setting": "subjects [1]; Day 0 (before supplementation)", "result": 5.8}, {"measurement": "VAS-Positivity area under the curve, Mean", "setting": "subjects [2]; [4]", "result": 1235}, {"measurement": "VAS-Positivity area under the curve, Mean Difference ± SE", "setting": "subjects [2]; [5]", "result": "15.0 ± 43.0"}, {"measurement": "VAS-Positivity area under the curve, effect size d", "setting": "subjects [2]; [5]", "result": 0.05}, {"measurement": "VAS-Positivity rating, Mean", "setting": "subjects [2]; [6]", "result": 6.4}, {"measurement": "VAS-Positivity changes from baseline, Mean Difference ± SE", "setting": "subjects [2]; [7]", "result": "0.07 ± 0.19"}, {"measurement": "VAS-Positivity changes from baseline, effect size d", "setting": "subjects [2]; [7]", "result": 0.08}, {"measurement": "VAS-Positivity rating, Mean", "setting": "subjects [2]; [8]", "result": 6.8}, {"measurement": "VAS-Positivity changes from baseline, Mean Difference ± SE", "setting": "subjects [2]; [9]", "result": "−0.05 ± 0.25"}, {"measurement": "VAS-Positivity changes from baseline, effect size d", "setting": "subjects [2]; [9]", "result": 0.05}, {"measurement": "VAS-Positivity rating, Mean", "setting": "subjects [2]; [10]", "result": 7.0}, {"measurement": "VAS-Positivity changes from baseline, Mean Difference ± SE", "setting": "subjects [2]; [11]", "result": "0.46 ± 0.27"}, {"measurement": "VAS-Positivity changes from baseline, effect size d", "setting": "subjects [2]; [11]", "result": 0.43}, {"measurement": "VAS-Positivity rating, Mean", "setting": "subjects [2]; [12]", "result": 7.0}, {"measurement": "VAS-Positivity rating, Mean", "setting": "subjects [2]; Day 0 (before supplementation)", "result": 6.6}, {"measurement": "VAS-Ability to tolerate stress area under the curve, Mean", "setting": "subjects [3]; [4]", "result": 1075}, {"measurement": "VAS-Ability to tolerate stress area under the curve, Mean Difference ± SE", "setting": "subjects [3]; [5]", "result": "45.5 ± 45.6"}, {"measurement": "VAS-Ability to tolerate stress area under the curve, effect size d", "setting": "subjects [3]; [5]", "result": "−0.13"}, {"measurement": "VAS-Ability to tolerate stress rating, Mean", "setting": "subjects [3]; [6]", "result": 5.7}, {"measurement": "VAS-Ability to tolerate stress changes from baseline, Mean Difference ± SE", "setting": "subjects [3]; [7]", "result": "0.17 ± 0.18"}, {"measurement": "VAS-Ability to tolerate stress changes from baseline, effect size d", "setting": "subjects [3]; [7]", "result": 0.21}, {"measurement": "VAS-Ability to tolerate stress rating, Mean", "setting": "subjects [3]; [8]", "result": 6.2}, {"measurement": "VAS-Ability to tolerate stress changes from baseline, Mean Difference ± SE", "setting": "subjects [3]; [9]", "result": "0.28 ± 1.42"}, {"measurement": "VAS-Ability to tolerate stress changes from baseline, effect size d", "setting": "subjects [3]; [9]", "result": 0.27}, {"measurement": "VAS-Ability to tolerate stress rating, Mean", "setting": "subjects [3]; [10]", "result": 6.4}, {"measurement": "VAS-Ability to tolerate stress changes from baseline, Mean Difference ± SE", "setting": "subjects [3]; [11]", "result": "0.67 ± 0.30"}, {"measurement": "VAS-Ability to tolerate stress changes from baseline, effect size d", "setting": "subjects [3]; [11]", "result": "0.52 and 0.54"}, {"measurement": "VAS-Ability to tolerate stress rating, Mean", "setting": "subjects [3]; [12]", "result": 6.4}, {"measurement": "VAS-Ability to tolerate stress rating, Mean", "setting": "subjects [3]; Day 0 (before supplementation)", "result": 6.1}]}
